Publication PMC6694155, “PTPσ inhibitors promote hematopoietic stem cell regeneration” (Nature Communications, 2019)
“And” between values parts separate entries of the source, which are not always exact repeats. Equal entries are not always repeated. “Also recorded” adds a separate entry of the source.

Legend:
PTPσ = target: T1, PTPσ (Mus musculus, UniProt B0V2N1); test: PTPσ enzymatic assay (modified Malachite Green / Tyrosine Phosphatase Assay Kit); assay type: biochemical; conditions: for PTPσ inhibitory activity (in words): direct PTPσ enzymatic assay; for Supplementary Figure 5b: PTPσ enzymatic assay signal: replicates
T1 sequence (B0V2N1 1326-1907): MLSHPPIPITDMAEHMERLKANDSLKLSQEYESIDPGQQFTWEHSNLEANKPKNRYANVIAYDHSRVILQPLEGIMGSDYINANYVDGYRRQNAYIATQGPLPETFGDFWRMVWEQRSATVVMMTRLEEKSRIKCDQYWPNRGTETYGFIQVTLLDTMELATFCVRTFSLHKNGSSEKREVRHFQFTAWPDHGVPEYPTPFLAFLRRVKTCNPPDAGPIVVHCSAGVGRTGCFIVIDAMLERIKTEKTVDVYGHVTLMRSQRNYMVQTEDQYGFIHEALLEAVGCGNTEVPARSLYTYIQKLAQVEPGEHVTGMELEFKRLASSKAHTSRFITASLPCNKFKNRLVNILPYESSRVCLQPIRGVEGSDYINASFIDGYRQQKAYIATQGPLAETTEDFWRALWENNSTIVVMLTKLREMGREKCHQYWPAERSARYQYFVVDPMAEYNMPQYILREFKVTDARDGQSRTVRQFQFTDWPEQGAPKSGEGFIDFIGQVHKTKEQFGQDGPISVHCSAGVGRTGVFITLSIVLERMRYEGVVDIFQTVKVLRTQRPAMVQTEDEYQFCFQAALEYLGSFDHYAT
Description: The two intracellular catalytic domains (D1 and D2) of Ptprs were cloned into a pET28a vector, overexpressed in Escherichia coli BL21 and purified. Enzymatic activity of PTPσ was assayed using a modified version of the Malachite Green Assay[66] and the Tyrosine Phosphatase Assay Kit (Promega Corporation). Unless stated otherwise, standard assays were carried out using 50 nM PTPσ protein in 1× Buffer (10 mM Tris, 5 mM MgCl2, 10 mM NaCl, 0.02% Tween) and Tyr Phosphopeptide as substrate (200 μM for Fig. 1b, c, 50–1200 μM in Fig. 1c). Purified catalytic domain 1 and domain 2 of PTPσ were pre-incubated with test compounds 3071, 5205, 5075, or control for 15 min in a 96-well plate before the addition of Tyr Phosphopeptide (DADE(pY)LIPQQG). For IC50 determination, rates normalized relative to uninhibited controls (dimethyl sulfoxide (DMSO)) were plotted against compound concentration and fitted using a four-parameter nonlinear regression curve fit ((y = [(A − D) (1 + {xC − 1}B) − 1] + D) (Prism 6.0, Graphpad Software). For mechanism studies and determination of the enyzme’s Km and Vmax, data were analyzed using a nonlinear regression fit according to the classical Michaelis–Menten kinetics model, Y = Vmax*X/(Km + X) (Prism 6.0, Graphpad Software).

C57BL/6 mice = test: Survival study after 750 cGy TBI; assay type: in vivo, mouse
Description: For survival studies, 10-week-old female C57BL/6 mice were irradiated with 750 cGy TBI, which is lethal for ~50% of C57BL/6 mice by day + 30 (LD50/30), using a Shepherd Cesium-137 irradiator. Twenty four hours post irradiation, mice were administered daily subcutaneous injections of 5 mg/kg DJ001 or DJ009, or vehicle in a volume of 100 μL for 10 days. DJ001 or DJ009 injections were prepared in PBS, 0.5% Tween 80, and 10% DMSO. Corresponding vehicle injections contained PBS, 10% DMSO, and 0.5% Tween 80. PB complete blood counts were measured using a Hemavet 950 instrument (Drew Scientific) at day + 10 post irradiation. For hematopoietic analysis, BM cells were collected at day + 10 post irradiation. To study whether DJ001 increased survival rates through activation of RAC signaling, the RAC inhibitor, EHT1864 (Selleckchem), was dissolved in PBS and administered intraperitoneally, 40 mg/kg every other day, to 750 cGy-irradiated mice until day + 10.

[1] = 750 cGy TBI, DJ001 daily day +1 to +10, through day +40

`O=C(/C=C\Nc1cccc([N+](=O)[O-])c1)c1ccccc1` [DJ001, (Z)-3-((3-nitrophenyl)amino)-1-phenylprop-2-en-1-one] was tested, and the “PTPσ inhibitory activity (in words)” value (PTPσ) was “confirmed the inhibitory effect”, the “PTPσ inhibitory activity (in words)” value (PTPσ; listed as 5483071) was “strong inhibitory activity” and the percent survival (C57BL/6 mice; [1]) was 93%. The “survival, mice alive of total (Fig. 2f)” value (C57BL/6 mice; [1]) was 27/29 and 27 of 29, the “survival, mice alive of total (Fig. 3f)” value (C57BL/6 mice; 750 cGy, 10-day treatment, EHT1864 40 mg/kg i.p. every other day) was 11/15 and the “Figure 3f: survival event per mouse (1 = event, 0 = censored)” value (from here on “Figure 3f: survival event per mouse”) (C57BL/6 mice; Days Post-irradiation 14) was 1. The “Figure 3f: survival event per mouse” value (C57BL/6 mice; Days Post-irradiation 17) was 1, the “Figure 3f: survival event per mouse” value (C57BL/6 mice; Days Post-irradiation 18) was 1 and the “survival source data, event code per mouse” value (C57BL/6 mice; Days Post-irradiation 18) was 1. The “Figure 3f: survival event per mouse” value (C57BL/6 mice; Days Post-irradiation 20) was 1, the “Figure 3f: survival event per mouse” value (C57BL/6 mice; Days Post-irradiation 30) was 0 and the “survival source data, event code per mouse” value (C57BL/6 mice; Days Post-irradiation 40) was 0.

In the case of `O=C(/C=C\Nc1cc(F)cc(F)c1)c1ccccc1` [DJ009, (Z)-3-((3,5-difluorophenyl)amino)-1-phenylprop-2-en-1-one], the “PTPσ inhibitory activity (in words)” value (PTPσ) is reported as “strongly inhibited PTPσ activity; also recorded: strong PTPσ inhibitory”, the “Supplementary Figure 5b: PTPσ enzymatic assay signal” value (from here on “Supplementary Figure 5b”) (PTPσ; inhibitor 0.0122 uM) is reported as 0.21 and 0.203 (2×) and the “Supplementary Figure 5b” value (PTPσ; inhibitor 0.049 uM) is reported as 0.201 and 0.209 and 0.211. For the same compound, the “Supplementary Figure 5b” value (PTPσ; inhibitor 0.09 uM) was 0.199 and 0.194 and 0.195, the “Supplementary Figure 5b” value (PTPσ; inhibitor 0.19 uM) was 0.178 and 0.174 and 0.176 and the “Supplementary Figure 5b” value (PTPσ; inhibitor 0.39 uM) was 0.161 and 0.165 and 0.164. For the same compound, the “Supplementary Figure 5b” value (PTPσ; inhibitor 0.78 uM) was 0.162 and 0.166 and 0.165, the “Supplementary Figure 5b” value (PTPσ; inhibitor 1.56 uM) was 0.16 and 0.163 and 0.158 and the “Supplementary Figure 5b” value (PTPσ; inhibitor 3.125 uM) was 0.154 and 0.159 and 0.16. For the same compound, the “Supplementary Figure 5b” value (PTPσ; inhibitor 6.25 uM) was 0.157 and 0.162 and 0.156, the “survival of irradiated C57BL/6 mice (in words)” value (C57BL/6 mice; 750 cGy TBI, 5 mg/kg daily for 10 days) was “significantly increased survival” and the “survival, mice alive of total (Supplementary Fig. 5f)” value (C57BL/6 mice; 750 cGy, 5 mg/kg DJ009 daily for 10 d) was 24/24. For the same compound, the “Supplementary Figure 5f: survival event per mouse (1 = event, 0 = censored)” value (C57BL/6 mice; Days post-radiation 30) was 0.
